Experimental data from ChEMBL document CHEMBL1201862, “PubChem BioAssay data set” (2004).
Activity calls are given as the source filed them.

What was measured:
[1] = cytotoxicity in OV-90 ovarian cancer cells, dose response, PAX8 inhibitor project, cell-based, plate reader, dry powder, SA8 (AID 743149); type: functional
[2] = cytotoxicity in COV434 cells, dose response, cytotoxicity control for PAX8 inhibitor project, cell-based, plate reader, dry powder, SA7 (AID 743145); type: functional
[3] = NIH:OVCAR-3 ovarian cancer cell cytotoxicity, dose response, PAX8 inhibitor project, plate reader, dry powder samples (AID 743044); type: functional, cell-based
[4] = PAX2 cell-based inhibition, dose response, selectivity assay for PAX8 inhibitor project, plate reader, dry powder samples (AID 743048); type: functional;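 note: HEK293 cells carrying a WT1 promoter luciferase reporter driven by expressed Pax2; potency is for inhibition of Pax2 driven reporter signal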
Paired box protein Pax-8 = Paired box protein Pax-8 (Homo sapiens, UniProt Q06710); assay: inhibitors of PAX8-driven TPO luciferase reporter, dose response, RMG-I cells, cherry-pick (AID 687027); type: functional, cell-based;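 note: luciferase reporter driven by Pax8 target thyroperoxidase promoter measured by SteadyGlo luminescence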
[5] = A2780 ovarian cancer cell cytotoxicity, dose response, cytotoxicity control, plate reader, dry powder samples (AID 743046); type: functional, cell-based
[6] = PAX5 activity inhibitors, dose response, selectivity assay for PAX8 inhibitor project, cell-based, plate reader, dry powder samples (AID 743047); type: functional;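 note: HEK293 cells carrying a Pax5 driven CD19 promoter luciferase reporter; potency of inhibitors that lower reporter luminescence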
[7] = cytotoxicity dependent on PAX8, dose response, cell-based, plate reader, dry powder (AID 743049); type: functional
[8] = IOSE-T80 ovarian epithelial cell cytotoxicity, dose response, cytotoxicity control for PAX8 inhibitor project, plate reader, dry powder samples (AID 743045); type: functional, cell-based
[9] = cytotoxicity in COV362 ovarian cancer cells, dose response, cytotoxicity control for PAX8 inhibitor project, cell-based, plate reader, dry powder, SA12 (AID 743144); type: functional
[10] = cytotoxicity in OVCAR4 cells, dose response, cytotoxicity control for PAX8 inhibitor project, cell-based, plate reader, dry powder, SA11 (AID 743150); type: functional; settings: OVCAR-4
[11] = IGROV1 ovarian cancer cell cytotoxicity, dose response, PAX8 inhibitor project, plate reader, dry powder samples (AID 743043); type: functional, cell-based; settings: IGROV-1
cells [12] = type: functional, cell-based
[13] = molecular target: T1, Trace amine-associated receptor 1 (Homo sapiens, UniProt Q96RJ0); assay: Fluorescence-based cell-based high throughput dose response assay to identify agonists of the human trace amine associated receptor 1 (TAAR1).; type: functional
cells [14] = type: functional, cell-based; remark: listed apart in the source
[15] = molecular target: T1, Trace amine-associated receptor 1; assay: Counterscreen for agonists of the human trace amine associated receptor 1 (hTAAR1): Fluorescence-based cell-based high throughput dose response assay to identify hTAAR1 agonist that also desensitize TAAR1 receptor response.; type: functional
[16] = molecular target: Potassium channel subfamily K member 9 (Homo sapiens, UniProt Q9NPC2); assay: TASK3 (KCNK9) channel inhibitors, thallium flux, SAR follow-up, selectivity assay for TASK1 inhibitor project, cell-based, FluxOR thallium flux, concentration-response (AID 652211); type: functional;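 note: potency is for inhibitors of the channel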
[17] = molecular target: Potassium channel subfamily K member 3 (Homo sapiens, UniProt O14649); assay: TASK1 (KCNK3) potassium channel inhibitors, SAR follow-up, CHO cells, FluxOR thallium flux (AID 652212); type: functional
[18] = molecular target: Potassium voltage-gated channel subfamily KQT member 2 (Rattus norvegicus, UniProt O88943); assay: KCNQ2 channel inhibition, SAR follow-up, selectivity assay for TASK1 inhibitor project, cell-based, FluxOR thallium flux, concentration-response (AID 652192); type: functional
cells [19] = type: functional, cell-based; settings: HEK-CNG
Galanin receptor type 3 = Galanin receptor type 3 (Homo sapiens, UniProt O60755); assay: Fluorescence-based cell-based primary high throughput dose response assay to identify antagonists of the Galanin Receptor 3 (GalR3).; type: functional
[20] = Late stage assay provider results from the probe development effort to identify selective inhibitors of heat shock protein 90 (HSP90): Absorbance-based cell proliferation assay in MCF7 cells.; type: functional
[21] = Late stage assay provider results from the probe development effort to identify selective inhibitors of heat shock protein 90 (HSP90): Absorbance-based cell proliferation assay in SKBR3 cells.; type: functional; settings: SK-BR-3
[22] = miR-122 activators in hepatoma reporter cells, dose response, cell-based, Huh7 psiCHECK-miR122, Renilla luciferase, cherry-picked (AID 651956); type: functional;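 note: huh7 hepatoma cells stably carrying a psiCHECK-2 miR-122 sensor plasmid; renilla luciferase signal reporting endogenous miR-122 activity after 48 h compound exposure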
[23] = HEK293T cytotoxicity, dose response, cytotoxicity control for miR-122 modulator project, cell-based, activator set, cherry-pick (AID 720690); type: functional;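 note: HEK293T human cells scored for general mammalian cytotoxicity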
[24] = molecular target: COUP transcription factor 2 (Homo sapiens, UniProt P24468); assay: Luminescence-based cell-based high throughput dose response assay to identify inhibitors of COUP-TFII (NR2F2).; type: functional;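 note: HEK293 cells transiently cotransfected with COUP-TFII expression vector and reporter; luciferase reporter luminescence driven by COUP-TFII from the pX2-168 reporter plasmid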
COUP transcription factor 2, sequence (P24468 whole entry): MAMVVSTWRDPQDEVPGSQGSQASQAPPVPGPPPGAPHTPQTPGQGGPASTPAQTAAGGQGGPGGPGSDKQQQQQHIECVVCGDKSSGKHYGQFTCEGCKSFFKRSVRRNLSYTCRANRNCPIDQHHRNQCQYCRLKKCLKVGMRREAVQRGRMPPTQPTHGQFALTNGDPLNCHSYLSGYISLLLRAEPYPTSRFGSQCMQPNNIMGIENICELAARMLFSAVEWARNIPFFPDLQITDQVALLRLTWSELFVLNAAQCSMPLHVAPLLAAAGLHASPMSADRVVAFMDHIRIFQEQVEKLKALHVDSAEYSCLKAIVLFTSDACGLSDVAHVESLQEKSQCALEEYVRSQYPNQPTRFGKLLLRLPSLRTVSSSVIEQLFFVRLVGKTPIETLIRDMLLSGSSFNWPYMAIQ

T1 sequence (Q96RJ0 whole entry): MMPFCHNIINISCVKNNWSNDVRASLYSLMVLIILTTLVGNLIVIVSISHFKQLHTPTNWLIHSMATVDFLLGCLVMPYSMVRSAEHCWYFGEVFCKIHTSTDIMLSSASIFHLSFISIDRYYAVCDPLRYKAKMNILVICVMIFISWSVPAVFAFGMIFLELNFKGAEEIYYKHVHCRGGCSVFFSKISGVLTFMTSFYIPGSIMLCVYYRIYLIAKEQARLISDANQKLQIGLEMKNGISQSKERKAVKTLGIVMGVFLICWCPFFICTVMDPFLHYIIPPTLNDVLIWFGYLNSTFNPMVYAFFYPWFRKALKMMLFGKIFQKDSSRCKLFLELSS
Potassium channel subfamily K member 9, sequence (Q9NPC2 whole entry): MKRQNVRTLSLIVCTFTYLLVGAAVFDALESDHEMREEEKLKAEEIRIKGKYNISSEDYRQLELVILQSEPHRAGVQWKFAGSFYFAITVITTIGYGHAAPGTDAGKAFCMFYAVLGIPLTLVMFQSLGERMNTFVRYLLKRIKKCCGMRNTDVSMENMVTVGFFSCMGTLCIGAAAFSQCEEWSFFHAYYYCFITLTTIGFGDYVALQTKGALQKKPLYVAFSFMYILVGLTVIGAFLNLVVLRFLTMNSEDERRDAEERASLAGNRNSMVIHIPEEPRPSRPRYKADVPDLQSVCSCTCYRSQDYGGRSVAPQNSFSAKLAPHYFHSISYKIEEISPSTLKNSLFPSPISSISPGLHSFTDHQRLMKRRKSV
Paired box protein Pax-8, sequence (Q06710 whole entry): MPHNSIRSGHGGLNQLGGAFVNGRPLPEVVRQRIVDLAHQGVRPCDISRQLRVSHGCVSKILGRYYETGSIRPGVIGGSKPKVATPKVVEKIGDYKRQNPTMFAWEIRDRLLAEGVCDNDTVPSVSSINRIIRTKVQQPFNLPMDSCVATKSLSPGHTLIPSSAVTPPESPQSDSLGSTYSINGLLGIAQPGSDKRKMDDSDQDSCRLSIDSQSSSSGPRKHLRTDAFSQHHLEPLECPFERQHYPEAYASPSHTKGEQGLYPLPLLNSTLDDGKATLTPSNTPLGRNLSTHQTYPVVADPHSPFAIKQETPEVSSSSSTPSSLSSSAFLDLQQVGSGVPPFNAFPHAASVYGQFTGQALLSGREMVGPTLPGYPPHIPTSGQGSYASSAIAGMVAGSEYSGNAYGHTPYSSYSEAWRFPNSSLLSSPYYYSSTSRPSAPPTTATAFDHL
Potassium channel subfamily K member 3, sequence (O14649 whole entry): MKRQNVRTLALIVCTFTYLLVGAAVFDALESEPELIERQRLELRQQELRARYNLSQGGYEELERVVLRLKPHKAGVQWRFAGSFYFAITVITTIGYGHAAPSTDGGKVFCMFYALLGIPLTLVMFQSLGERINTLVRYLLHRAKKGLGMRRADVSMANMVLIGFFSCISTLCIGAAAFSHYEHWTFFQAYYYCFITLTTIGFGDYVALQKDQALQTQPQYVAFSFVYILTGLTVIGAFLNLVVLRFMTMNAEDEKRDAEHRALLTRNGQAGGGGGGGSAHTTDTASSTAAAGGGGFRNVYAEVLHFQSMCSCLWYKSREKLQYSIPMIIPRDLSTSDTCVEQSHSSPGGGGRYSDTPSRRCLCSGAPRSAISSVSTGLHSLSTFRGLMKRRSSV
Galanin receptor type 3, sequence (O60755 whole entry): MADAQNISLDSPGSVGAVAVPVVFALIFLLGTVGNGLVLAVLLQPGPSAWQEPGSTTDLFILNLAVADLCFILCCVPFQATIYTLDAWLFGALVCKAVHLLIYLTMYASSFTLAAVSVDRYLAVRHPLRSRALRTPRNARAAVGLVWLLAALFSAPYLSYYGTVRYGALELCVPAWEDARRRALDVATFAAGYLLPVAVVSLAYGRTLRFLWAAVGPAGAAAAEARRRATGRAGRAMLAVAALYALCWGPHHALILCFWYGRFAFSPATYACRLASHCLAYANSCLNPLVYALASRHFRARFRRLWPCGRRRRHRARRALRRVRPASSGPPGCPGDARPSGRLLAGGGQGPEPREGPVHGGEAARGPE
Potassium voltage-gated channel subfamily KQT member 2, sequence (O88943 whole entry): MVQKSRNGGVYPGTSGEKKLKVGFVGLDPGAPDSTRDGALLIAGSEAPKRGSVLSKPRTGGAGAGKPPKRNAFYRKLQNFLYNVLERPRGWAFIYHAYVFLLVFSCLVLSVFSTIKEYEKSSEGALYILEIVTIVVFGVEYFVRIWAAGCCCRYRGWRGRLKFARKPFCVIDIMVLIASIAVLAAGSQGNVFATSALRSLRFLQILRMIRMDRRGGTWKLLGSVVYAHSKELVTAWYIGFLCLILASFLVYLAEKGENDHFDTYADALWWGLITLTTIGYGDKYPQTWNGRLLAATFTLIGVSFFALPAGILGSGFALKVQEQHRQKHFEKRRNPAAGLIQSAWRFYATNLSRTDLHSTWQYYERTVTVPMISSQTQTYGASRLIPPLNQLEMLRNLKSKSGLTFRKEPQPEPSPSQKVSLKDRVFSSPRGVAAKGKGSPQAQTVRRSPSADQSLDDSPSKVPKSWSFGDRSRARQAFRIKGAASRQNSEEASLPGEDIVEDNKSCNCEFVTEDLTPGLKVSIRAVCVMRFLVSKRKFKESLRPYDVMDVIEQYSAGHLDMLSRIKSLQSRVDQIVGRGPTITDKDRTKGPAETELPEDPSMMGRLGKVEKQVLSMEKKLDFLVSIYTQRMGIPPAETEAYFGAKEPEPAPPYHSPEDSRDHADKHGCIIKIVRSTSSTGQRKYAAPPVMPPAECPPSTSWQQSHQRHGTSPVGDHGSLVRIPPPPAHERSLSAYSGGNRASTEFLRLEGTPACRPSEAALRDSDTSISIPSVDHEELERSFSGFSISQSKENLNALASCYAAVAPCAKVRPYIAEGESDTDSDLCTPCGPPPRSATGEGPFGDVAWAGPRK

COc1ccc(/C=C/C(=O)c2cc(F)ccc2OC(=O)c2ccccc2C)cc1OC
AC50 [1]: 4.08 µM (active) | AC50 [2]: 1.79 µM (active) | AC50 [3]: 13.2 µM (active) | AC50 [4]: > 100 µM (inactive) | AC50 (Paired box protein Pax-8): 1.74 µM (active) | AC50 [5]: 3.22 µM (active) | AC50 [6]: 31.1 µM (active) | AC50 [7]: 5.56 µM (active) | AC50 [8]: 4.08 µM (active) | AC50 [9]: 2.52 µM (active) | AC50 [10]: 1.71 µM (active) | AC50 [11]: 3.26 µM (active)

CC(C)[C@H](NC(=O)C1CCCC1)C(=O)N1CCC[C@H]1C(=O)NCCc1ccccc1Cl
EC50 (cells [12]): > 29.9 µM (inactive) | EC50 [13]: 897 nM (active) | IC50 (cells [14]): > 29.9 µM (inactive) | IC50 [15]: 3.8 µM (active)

COc1cnccc1C(=O)Nc1cccc(NC(=O)c2cccc(C)c2)c1
IC50 [16]: 2.43 µM (active) | IC50 [17]: 180 nM (active) | IC50 [18]: 7.58 µM (active)

Cc1cc(Br)cn2c(Cc3ccccc3C(F)(F)F)c(-c3ccco3)nc12
EC50 (cells [19]): > 29.9 µM (inactive) | IC50 (Galanin receptor type 3): 14.5 µM (inactive)

Cc1c(N/C=C2/C=C(Br)C(=O)OC2=O)c(=O)n(-c2ccccc2)n1C
IC50 [20]: 3 µM (active) | IC50 [21]: 16 µM (inactive)

C[C@@H]1CCCCO[C@H](CN(C)CC2CCCCC2)[C@H](C)CN([C@@H](C)CO)C(=O)c2cc(NC(=O)Nc3ccc(C(F)(F)F)cc3)ccc2O1
AC50 [22]: 2.85 µM (active) | AC50 [23]: 4.83 µM (active)

CCN(CC)S(=O)(=O)c1ccc(/C=C/C(=O)Nc2ccc(Br)cc2F)cc1
IC50 [24]: 5.05 µM (active)
